organism: Homo sapiens; assay: Selectivity ratio of Kd for wild type partial length human EGFR to Kd for partial length human EGFR L858R/T790M double mutant; conditions: not given

First: C=CC(=O)Nc1cccc(-n2c3nc(Nc4ccc(N5CCN(NC)CC5)cc4OC)ncc3c(=O)n3ccnc23)c1
Second: C=CC(=O)Nc1cccc(-n2c3nc(Nc4ccc(N5CCN(C)CC5)cc4OC)ncc3c(=O)n3ccnc23)c1
The Selectivity ratio of the first is higher: 119 for the first, 78 for the second.

Compared with C=CC(=O)Nc1cccc(-n2c3nc(Nc4ccc(N5CCN(C)CC5)cc4OC)ncc3c(=O)n3c4ccccc4nc23)c1, C=CC(=O)Nc1cccc(-n2c3nc(Nc4ccc(N5CCN(C)CC5)cc4OCC)ncc3c(=O)n3ccnc23)c1 is higher in Selectivity ratio: 100 for the first, 136 for the second.

First: C=CC(=O)Nc1cccc(-n2c3nc(Nc4ccc(N5CCOCC5)cc4OC)ncc3c(=O)n3ccnc23)c1
Second: C=CC(=O)Nc1cccc(N2C3=NCCCCN3C(=O)c3cnc(Nc4ccc(N5CCN(C)CC5)cc4OC)nc32)c1
The Selectivity ratio of the first is higher: 156 for the first, 20 for the second.

system: NCI-H1975; assay: Antiproliferative activity against human NCI-H1975 cells expressing EGFR L858R/T790M double mutant assessed as decrease in cell viability after 48 hrs by WST assay; assay type: functional, cell-based; conditions: NCI-H1975, 48 h

CN(C)C/C=C/C(=O)Nc1cc2c(Nc3ccc(F)c(Cl)c3)ncnc2cc1O[C@H]1CCOC1 [AFATINIB] showed an IC50 of 900 nM.

system: BaF3; assay: Antiproliferative activity against mouse BA/F3 cells expressing wild type EGFR after 72 hrs by MTS assay; assay type: cell-based; conditions: BaF3, 72 h

Going from C=CC(=O)Nc1cccc(Oc2nc(Nc3ccc(N4CCN(C)CC4)cc3OC)ncc2Cl)c1 to C=CC(=O)Nc1cccc(Oc2nc(Nc3ccc(N4CCN(C)CC4)cc3)ncc2Cl)c1, the IC50 falls from 113 nM to 24 nM (4.7-fold).

For C=CC(=O)Nc1cccc(Sc2nc(Nc3ccc(N4CCN(C)CC4)cc3)ncc2Cl)c1, the IC50 was 32 nM.

system: A-431; assay: Antiproliferative activity against human A431 cells expressing wild type EGFR by MTS assay; assay type: cell-based; conditions: not given

First: C=CC(=O)Nc1cccc(-n2c3nc(Nc4ccc(N5CCN(NC)CC5)cc4OC)ncc3c(=O)n3ccnc23)c1
Second: C=CC(=O)Nc1cccc(-n2c3nc(Nc4ccc(N5CCN(C)CC5)cc4OC)ncc3c(=O)n3ccnc23)c1
The IC50 of the first is 4.9-fold higher: 14500 nM for the first, 2980 nM for the second. The second is the more potent here.

C=CC(=O)Nc1cccc(Oc2nc(Nc3ccc(N4CCN(C)CC4)cc3OC)ncc2Cl)c1 and C=CC(=O)Nc1cccc(N2C3=NCCCCN3C(=O)c3cnc(Nc4ccc(N5CCN(C)CC5)cc4OC)nc32)c1 are within 1.5-fold of each other in IC50: 1040 nM for the first, 1540 nM for the second.

C=CC(=O)Nc1cccc(-n2c3nc(Nc4ccc(N5CCN(C)CC5)cc4OC)ncc3c(=O)n3c4ccccc4nc23)c1 and C=CC(=O)Nc1cccc(-n2c3nc(Nc4ccc(N5CCN(C)CC5)cc4OCC)ncc3c(=O)n3ccnc23)c1 are within 1.5-fold of each other in IC50: 3570 nM for the first, 5250 nM for the second.

With C=CC(=O)Nc1cccc(-n2c3nc(Nc4ccc(N5CCOCC5)cc4OC)ncc3c(=O)n3ccnc23)c1 the IC50 was greater than 30000 nM.

system: BaF3; assay: Antiproliferative activity against gefitinib sensitive mouse BA/F3 cells expressing EGFR exon 19 del E746_A750 activating mutant after 72 hrs by MTS assay; assay type: functional, cell-based; conditions: BaF3, 72 h

Going from C=CC(=O)Nc1cccc(Oc2nc(Nc3ccc(N4CCN(C)CC4)cc3OC)ncc2Cl)c1 to C=CC(=O)Nc1cccc(Oc2nc(Nc3ccc(N4CCN(C)CC4)cc3)ncc2Cl)c1, the IC50 falls from 3 nM to 2 nM (1.5-fold). The second is the more potent here.

C=CC(=O)Nc1cccc(Sc2nc(Nc3ccc(N4CCN(C)CC4)cc3)ncc2Cl)c1 gave an IC50 of 2 nM.

system: NCI-H1975; assay: Potency index, ratio of gefitinib IC50 to compound IC50 for gefitinib resistant human NCI-H1975 cells expressing EGFR L858R/T790M double mutant; assay type: functional; conditions: not given

With C=CC(=O)Nc1cccc(Sc2nc(Nc3ccc(N4CCN(C)CC4)cc3)ncc2Cl)c1 the “Ratio IC50” value was 30 - 100.
In the case of C=CC(=O)Nc1cccc(Oc2nc(Nc3ccc(N4CCN(C)CC4)cc3)ncc2Cl)c1, the “Ratio IC50” value is reported as 30 - 100.

system: NCI-H1975; assay: Antiproliferative activity against gefitinib resistant human NCI-H1975 cells expressing EGFR L858R/T790M double mutant after 72 hrs by MTS assay; assay type: functional, cell-based; conditions: NCI-H1975, 72 h

Going from C=CC(=O)Nc1cccc(Oc2nc(Nc3ccc(N4CCN(C)CC4)cc3OC)ncc2Cl)c1 to C=CC(=O)Nc1cccc(Oc2nc(Nc3ccc(N4CCN(C)CC4)cc3)ncc2Cl)c1, the IC50 falls from 47 nM to 29 nM (1.6-fold).

C=CC(=O)Nc1cccc(Sc2nc(Nc3ccc(N4CCN(C)CC4)cc3)ncc2Cl)c1 gave an IC50 of 9 nM.

system: NCI-H1975; assay: Antiproliferative activity against human NCI-H1975 cells expressing EGFR L858R/T790M double mutant by MTS assay; assay type: functional, cell-based; conditions: not given

Compared with C=CC(=O)Nc1cccc(-n2c3nc(Nc4ccc(N5CCN(NC)CC5)cc4OC)ncc3c(=O)n3ccnc23)c1, C=CC(=O)Nc1cccc(-n2c3nc(Nc4ccc(N5CCN(C)CC5)cc4OC)ncc3c(=O)n3ccnc23)c1 is 1.7-fold higher in IC50: 86 nM for the first, 143 nM for the second. The first is the more potent here.

Going from C=CC(=O)Nc1cccc(Oc2nc(Nc3ccc(N4CCN(C)CC4)cc3OC)ncc2Cl)c1 to C=CC(=O)Nc1cccc(N2C3=NCCCCN3C(=O)c3cnc(Nc4ccc(N5CCN(C)CC5)cc4OC)nc32)c1, the IC50 rises from 55 nM to 648 nM (12-fold).

C=CC(=O)Nc1cccc(-n2c3nc(Nc4ccc(N5CCN(C)CC5)cc4OC)ncc3c(=O)n3c4ccccc4nc23)c1 and C=CC(=O)Nc1cccc(-n2c3nc(Nc4ccc(N5CCN(C)CC5)cc4OCC)ncc3c(=O)n3ccnc23)c1 are within 1.5-fold of each other in IC50: 307 nM for the first, 396 nM for the second.

Work on C=CC(=O)Nc1cccc(-n2c3nc(Nc4ccc(N5CCOCC5)cc4OC)ncc3c(=O)n3ccnc23)c1 yielded an IC50 of 476 nM.

biological target: Epidermal growth factor receptor (Homo sapiens, UniProt P00533, L858R/T790M); assay: Binding affinity to partial length human EGFR L858R/T790M double mutant expressed in mammalian system by KINOMEscan assay; conditions: not given
Sequence (P00533 25-1210 T790M/L858R limits assumed): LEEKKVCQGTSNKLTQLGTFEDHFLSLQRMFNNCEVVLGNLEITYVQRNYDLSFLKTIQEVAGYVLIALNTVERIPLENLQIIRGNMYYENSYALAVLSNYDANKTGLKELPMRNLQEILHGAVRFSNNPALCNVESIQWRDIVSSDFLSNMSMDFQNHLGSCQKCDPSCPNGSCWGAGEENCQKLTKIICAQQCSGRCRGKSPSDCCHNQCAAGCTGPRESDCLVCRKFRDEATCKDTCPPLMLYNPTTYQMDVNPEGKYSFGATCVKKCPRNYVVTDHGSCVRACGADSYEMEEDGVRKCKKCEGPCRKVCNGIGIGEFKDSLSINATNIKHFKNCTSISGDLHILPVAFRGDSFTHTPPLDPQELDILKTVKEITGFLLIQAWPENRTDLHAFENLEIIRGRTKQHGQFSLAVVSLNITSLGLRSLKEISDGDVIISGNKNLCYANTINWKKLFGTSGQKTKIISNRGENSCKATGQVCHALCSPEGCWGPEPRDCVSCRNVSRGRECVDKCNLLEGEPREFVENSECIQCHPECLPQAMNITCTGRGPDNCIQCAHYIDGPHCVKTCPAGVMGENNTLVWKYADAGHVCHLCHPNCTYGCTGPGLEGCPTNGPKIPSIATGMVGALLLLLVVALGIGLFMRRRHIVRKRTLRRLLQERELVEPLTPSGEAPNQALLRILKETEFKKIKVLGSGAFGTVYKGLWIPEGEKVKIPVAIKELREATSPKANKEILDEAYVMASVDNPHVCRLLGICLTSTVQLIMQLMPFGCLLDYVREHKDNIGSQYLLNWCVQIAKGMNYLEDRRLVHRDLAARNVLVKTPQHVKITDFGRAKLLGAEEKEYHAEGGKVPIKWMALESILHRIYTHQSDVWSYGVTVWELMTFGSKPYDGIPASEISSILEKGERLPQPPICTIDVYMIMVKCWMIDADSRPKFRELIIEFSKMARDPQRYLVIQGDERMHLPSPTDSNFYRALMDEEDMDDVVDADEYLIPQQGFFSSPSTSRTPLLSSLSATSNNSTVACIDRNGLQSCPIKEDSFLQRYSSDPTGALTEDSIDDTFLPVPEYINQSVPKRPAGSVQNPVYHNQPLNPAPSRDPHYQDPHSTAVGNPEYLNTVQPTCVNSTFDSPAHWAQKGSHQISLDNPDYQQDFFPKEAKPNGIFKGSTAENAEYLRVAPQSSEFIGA

C=CC(=O)Nc1cccc(-n2c3nc(Nc4ccc(N5CCN(NC)CC5)cc4OC)ncc3c(=O)n3ccnc23)c1 and C=CC(=O)Nc1cccc(-n2c3nc(Nc4ccc(N5CCN(C)CC5)cc4OC)ncc3c(=O)n3ccnc23)c1 are within 1.5-fold of each other in Kd: 2.6 nM for the first, 1.8 nM for the second.

Compared with C=CC(=O)Nc1cccc(-n2c3nc(Nc4ccc(N5CCN(C)CC5)cc4OC)ncc3c(=O)n3c4ccccc4nc23)c1, C=CC(=O)Nc1cccc(-n2c3nc(Nc4ccc(N5CCN(C)CC5)cc4OCC)ncc3c(=O)n3ccnc23)c1 is 2.8-fold higher in Kd: 1.1 nM for the first, 3.1 nM for the second. The first binds more tightly here.

Going from C=CC(=O)Nc1cccc(-n2c3nc(Nc4ccc(N5CCOCC5)cc4OC)ncc3c(=O)n3ccnc23)c1 to C=CC(=O)Nc1cccc(N2C3=NCCCCN3C(=O)c3cnc(Nc4ccc(N5CCN(C)CC5)cc4OC)nc32)c1, the Kd falls from 6.1 nM to 0.88 nM (6.9-fold).

system: BaF3; assay: Selectivity ratio of IC50 for gefitinib sensitive mouse BA/F3 cells expressing wild type EGFR to IC50 for gefitinib resistant mouse BA/F3 cells expressing EGFR L858R/T790M double mutant; conditions: not given

First: C=CC(=O)Nc1cccc(Sc2nc(Nc3ccc(N4CCN(C)CC4)cc3)ncc2Cl)c1
Second: C=CC(=O)Nc1cccc(Oc2nc(Nc3ccc(N4CCN(C)CC4)cc3)ncc2Cl)c1
The “Ratio IC50” value of the first is lower: 4 for the first, 5 for the second.

system: BaF3; assay: Antiproliferative activity against gefitinib resistant mouse BA/F3 cells expressing EGFR L858R/T790M double mutant after 72 hrs by MTS assay; assay type: functional, cell-based; conditions: BaF3, 72 h

First: C=CC(=O)Nc1cccc(Oc2nc(Nc3ccc(N4CCN(C)CC4)cc3OC)ncc2Cl)c1
Second: C=CC(=O)Nc1cccc(Oc2nc(Nc3ccc(N4CCN(C)CC4)cc3)ncc2Cl)c1
The IC50 of the first is 1.6-fold higher: 8 nM for the first, 5 nM for the second. The second is the more potent here.

C=CC(=O)Nc1cccc(Sc2nc(Nc3ccc(N4CCN(C)CC4)cc3)ncc2Cl)c1 showed an IC50 of 9 nM.

system: BaF3; assay: Potency index, ratio of gefitinib IC50 to compound IC50 for gefitinib resistant mouse BA/F3 cells expressing EGFR L858R/T790M double mutant; assay type: functional; conditions: not given

With C=CC(=O)Nc1cccc(Sc2nc(Nc3ccc(N4CCN(C)CC4)cc3)ncc2Cl)c1 the “Ratio IC50” value was 30 - 100.
For C=CC(=O)Nc1cccc(Oc2nc(Nc3ccc(N4CCN(C)CC4)cc3)ncc2Cl)c1, the “Ratio IC50” value was 30 - 100.

system: not listed separately; assay: Selectivity ratio of IC50 for human A431 cells expressing wild type EGFR to IC50 for human NCI-H1975 cells expressing EGFR L858R/T790M double mutant; conditions: not given

Compared with C=CC(=O)Nc1cccc(-n2c3nc(Nc4ccc(N5CCN(NC)CC5)cc4OC)ncc3c(=O)n3ccnc23)c1, C=CC(=O)Nc1cccc(-n2c3nc(Nc4ccc(N5CCN(C)CC5)cc4OC)ncc3c(=O)n3ccnc23)c1 is lower in “Ratio IC50” value: 169 for the first, 21 for the second.

First: C=CC(=O)Nc1cccc(-n2c3nc(Nc4ccc(N5CCN(C)CC5)cc4OC)ncc3c(=O)n3c4ccccc4nc23)c1
Second: C=CC(=O)Nc1cccc(-n2c3nc(Nc4ccc(N5CCN(C)CC5)cc4OCC)ncc3c(=O)n3ccnc23)c1
The “Ratio IC50” value of the first is lower: 12 for the first, 13 for the second.

Compared with C=CC(=O)Nc1cccc(-n2c3nc(Nc4ccc(N5CCOCC5)cc4OC)ncc3c(=O)n3ccnc23)c1, C=CC(=O)Nc1cccc(N2C3=NCCCCN3C(=O)c3cnc(Nc4ccc(N5CCN(C)CC5)cc4OC)nc32)c1 is lower in “Ratio IC50” value: 63 for the first, 3 for the second.

system: PC-9; assay: Antiproliferative activity against gefitinib resistant human PC9 cells expressing EGFR del E746_A750/T790M mutant after 72 hrs by MTS assay; assay type: functional, cell-based; conditions: PC-9, 72 h

C=CC(=O)Nc1cccc(Oc2nc(Nc3ccc(N4CCN(C)CC4)cc3OC)ncc2Cl)c1 showed an IC50 of 14 nM.

biological target: Epidermal growth factor receptor (Homo sapiens, UniProt P00533); assay: Binding affinity to wild type partial length human EGFR expressed in bacterial system by KINOMEscan assay; conditions: not given
Sequence (P00533 whole entry): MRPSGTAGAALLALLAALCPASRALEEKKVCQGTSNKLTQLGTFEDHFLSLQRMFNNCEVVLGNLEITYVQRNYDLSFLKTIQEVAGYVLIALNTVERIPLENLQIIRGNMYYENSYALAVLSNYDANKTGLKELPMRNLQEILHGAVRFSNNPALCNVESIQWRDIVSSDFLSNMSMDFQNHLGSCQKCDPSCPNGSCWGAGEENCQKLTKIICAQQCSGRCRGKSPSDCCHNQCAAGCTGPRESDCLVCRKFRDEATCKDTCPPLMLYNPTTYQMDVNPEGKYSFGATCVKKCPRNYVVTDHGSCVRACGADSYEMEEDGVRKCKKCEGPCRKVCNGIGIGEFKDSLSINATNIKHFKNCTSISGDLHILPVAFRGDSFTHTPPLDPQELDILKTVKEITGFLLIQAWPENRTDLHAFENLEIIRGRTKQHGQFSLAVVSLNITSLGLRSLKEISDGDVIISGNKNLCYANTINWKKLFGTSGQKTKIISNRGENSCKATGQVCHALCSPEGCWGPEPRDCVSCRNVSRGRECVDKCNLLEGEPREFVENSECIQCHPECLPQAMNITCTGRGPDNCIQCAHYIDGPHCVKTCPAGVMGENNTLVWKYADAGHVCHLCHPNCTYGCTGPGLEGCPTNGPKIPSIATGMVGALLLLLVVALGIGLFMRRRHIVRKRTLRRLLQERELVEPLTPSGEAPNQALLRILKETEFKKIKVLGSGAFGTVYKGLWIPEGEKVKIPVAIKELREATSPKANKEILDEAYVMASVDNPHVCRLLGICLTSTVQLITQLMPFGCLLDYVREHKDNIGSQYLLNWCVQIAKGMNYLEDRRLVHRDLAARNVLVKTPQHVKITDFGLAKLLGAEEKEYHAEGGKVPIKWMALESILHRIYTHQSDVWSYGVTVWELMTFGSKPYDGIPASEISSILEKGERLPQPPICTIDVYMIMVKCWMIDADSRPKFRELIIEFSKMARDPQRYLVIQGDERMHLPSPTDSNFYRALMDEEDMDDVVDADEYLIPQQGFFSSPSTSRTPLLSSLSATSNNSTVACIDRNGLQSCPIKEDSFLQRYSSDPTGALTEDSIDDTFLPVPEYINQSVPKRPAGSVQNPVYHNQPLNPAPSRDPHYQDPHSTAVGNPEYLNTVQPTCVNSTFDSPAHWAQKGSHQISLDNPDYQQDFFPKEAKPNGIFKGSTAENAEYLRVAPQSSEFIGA

Compared with C=CC(=O)Nc1cccc(-n2c3nc(Nc4ccc(N5CCN(NC)CC5)cc4OC)ncc3c(=O)n3ccnc23)c1, C=CC(=O)Nc1cccc(-n2c3nc(Nc4ccc(N5CCN(C)CC5)cc4OC)ncc3c(=O)n3ccnc23)c1 is 2.2-fold lower in Kd: 310 nM for the first, 140 nM for the second. The second binds more tightly here.

Going from C=CC(=O)Nc1cccc(-n2c3nc(Nc4ccc(N5CCN(C)CC5)cc4OC)ncc3c(=O)n3c4ccccc4nc23)c1 to C=CC(=O)Nc1cccc(-n2c3nc(Nc4ccc(N5CCN(C)CC5)cc4OCC)ncc3c(=O)n3ccnc23)c1, the Kd rises from 110 nM to 420 nM (3.8-fold).

Going from C=CC(=O)Nc1cccc(-n2c3nc(Nc4ccc(N5CCOCC5)cc4OC)ncc3c(=O)n3ccnc23)c1 to C=CC(=O)Nc1cccc(N2C3=NCCCCN3C(=O)c3cnc(Nc4ccc(N5CCN(C)CC5)cc4OC)nc32)c1, the Kd falls from 950 nM to 17 nM (56-fold). The second binds more tightly here.

Reference: ChEMBL document CHEMBL4425085, “Challenges and Perspectives on the Development of Small-Molecule EGFR Inhibitors against T790M-Mediated Resistance in Non-Small-Cell Lung Cancer” (J Med Chem, 2016)
